The values below come from ChEMBL document CHEMBL1135011, “Isolation and antimalarial activity of peroxydisulfate oxidation products of primaquine” (Bioorg Med Chem Lett, 2002).

The subject of assay [1] is Plasmodium falciparum. Nature of the assay: (§1) Effective concentration for gametocidal activity against Plasmodium falciparum FDL-HD. It is filed as functional.
For assay [2], the system named is Mus musculus. As to the kind of experiment: Gametocytocidal activity against Plasmodium yoelii infected mice (2) on intraperitoneal dose of 10 mg/kg at 24 hr of mosquito feeding was determined and average of oocyst determined to find infectivity. It is filed as functional.
Assay [3] concerns Mus musculus. Nature of the assay: Tested for in vivo gametocytocidal activity against Plasmodium yoelii infected mice (1), on intraperitoneal dose of 10 mg/kg at +24h of mosquito feeding; Activity = No of Oocytes for infectivity. It is filed as functional.
Assay [4] is filed under the species Mus musculus. As to the kind of experiment: Activity by comparing the number of oocytes on midgets of mosquitoes fed on drug treated on mice (1) with those of insects fed on untreated animals at 6 hr of mosquito feeding; 16/20. It is filed as functional.
The species named for assay [5] is Mus musculus. As to the kind of experiment: Activity by comparing the number of oocytes on midgets of mosquitoes fed on drug treated on mice (2) with those of insects fed on untreated animals at -1h of mosquito feeding; 5/15. It is filed as functional.
The species named for assay [6] is Mus musculus. As to the kind of experiment: Activity by comparing the number of oocytes on midgets of mosquitoes fed on drug treated on mice (2) with those of insects fed on untreated animals at -1h of mosquito feeding; 13/15. It is filed as functional.
Assay [7] deals with Plasmodium falciparum. Nature of the assay: (§2) Effective concentration for schizonticidal activity against Plasmodium falciparum FDL-HD. It is filed as functional, organism-based.
In assay [8] the test system is Mus musculus. Nature of the assay: Gametocytocidal activity against Plasmodium yoelii infected mice (2) on intraperitoneal dose of 10 mg/kg at -1h of mosquito feeding was determined and average of oocyst determined to find infectivity. It is filed as functional.
For assay [9], the system named is Mus musculus. As to the kind of experiment: Tested for in vivo gametocytocidal activity against Plasmodium yoelii infected mice, on intraperitoneal dose of 10 mg/kg at -1h of mosquito feeding; Activity = No of Oocytes for infectivity. It is filed as functional.
The species entered for assay [10] is Mus musculus. As to the kind of experiment: Activity by comparing the number of oocytes on midgets of mosquitoes fed on drug treated on mice (1) with those of insects fed on untreated animals at 24 hr of mosquito feeding; 10/12. It is filed as functional.
Assay [11] relates to Mus musculus. Nature of the assay: Tested for in vivo gametocytocidal activity against Plasmodium yoelii infected mice (1), on intraperitoneal dose of 10 mg/kg at +6h of mosquito feeding; Activity = No of Oocytes for infectivity. It is filed as functional.
Assay [12] concerns Mus musculus. As to the kind of experiment: Gametocytocidal activity against Plasmodium yoelii infected mice (2) on intraperitoneal dose of 10 mg/kg at 6 hr of mosquito feeding was determined and average of oocyst determined to find infectivity. It is filed as functional.
The species named for assay [13] is Mus musculus. As to the kind of experiment: Activity by comparing the number of oocytes on midgets of mosquitoes fed on drug treated on mice (1) with those of insects fed on untreated animals at -1h of mosquito feeding; 18/20. It is filed as functional.
Assay [14] relates to Plasmodium falciparum. The assay is described as §1. It is filed as functional, organism-based.
Assay [15] concerns Plasmodium falciparum. The assay is described as §2. It is filed as functional.
Assay [16] is filed under the species Mus musculus. As to the kind of experiment: Activity by comparing the number of oocytes on midgets of mosquitoes fed on drug treated on mice (2) with those of insects fed on untreated animals at -1h of mosquito feeding; 12/15. It is filed as functional.
Assay [17] relates to Mus musculus. Nature of the assay: Gametocytocidal activity against Plasmodium yoelii infected mice (3) on intraperitoneal dose of 10 mg/kg at -1h of mosquito feeding was determined and average of oocysts determined to find infectivity. It is filed as functional.
Assay [18] is filed under the species Mus musculus. As to the kind of experiment: Activity by comparing the number of oocytes on midgets of mosquitoes fed on drug treated on mice (2) with those of insects fed on untreated animals at 24 hr of mosquito feeding; 0/20. It is filed as functional.
The species named for assay [19] is Mus musculus. Nature of the assay: Activity by comparing the number of oocytes on midgets of mosquitoes fed on drug treated on mice (3) with those of insects fed on untreated animals at -1h of mosquito feeding; 8/11. It is filed as functional.
Assay [20] is filed under the species Mus musculus. Nature of the assay: Activity by comparing the number of oocytes on midgets of mosquitoes fed on drug treated on 1 mice with those of insects fed on untreated animals at 6 hr of mosquito feeding; 0/20. It is filed as functional.
Assay [21] is filed under the species Mus musculus. As to the kind of experiment: Activity by comparing the number of oocytes on midgets of mosquitoes fed on drug treated on 1 mice with those of insects fed on untreated animals at -1h of mosquito feeding; 15/15. It is filed as functional.
The test system of assay [22] is Mus musculus. Nature of the assay: Gametocytocidal activity against Plasmodium yoelii infected mice (2) on intraperitoneal dose of 10 mg/kg at -1h of mosquito feeding was determined and average of oocysts determined to find infectivity. It is filed as functional.
The species named for assay [23] is Mus musculus. Nature of the assay: Activity by comparing the number of oocytes on midgets of mosquitoes fed on drug treated on mice (2) with those of insects fed on untreated animals at 6 hr of mosquito feeding; 0/20. It is filed as functional.
Assay [24] is filed under the species Mus musculus. As to the kind of experiment: Activity by comparing the number of oocytes on midgets of mosquitoes fed on drug treated on mice (2) with those of insects fed on untreated animals at -1h of mosquito feeding; 16/20. It is filed as functional.
The species named for assay [25] is Mus musculus. Nature of the assay: Activity by comparing the number of oocytes on midgets of mosquitoes fed on drug treated on mice (3) with those of insects fed on untreated animals at 6 hr of mosquito feeding; 0/10. It is filed as functional.
The species entered for assay [26] is Mus musculus. As to the kind of experiment: Activity by comparing the number of oocytes on midgets of mosquitoes fed on drug treated on 1 mice with those of insects fed on untreated animals at 24 hr of mosquito feeding; 0/20. It is filed as functional.
The species named for assay [27] is Mus musculus. Nature of the assay: Activity by comparing the number of oocytes on midgets of mosquitoes fed on drug treated on 1 mice with those of insects fed on untreated animals at -1h of mosquito feeding; 18/20. It is filed as functional.

Some results are limits rather than exact numbers.

For `COc1cc(NC(C)CCCN)c2ncccc2c1-c1c(OC)cc(NC(C)CCCN)c2ncccc12` (stereo unspecified), the IC90 in assay [1] worked out at 0.062 ug well-1; in assay [15] it was 0.19 ug well-1. Moreover, the Activity in assay [2] is 68.33; in assay [3] it was over 300; in assay [8], 260.3; in assay [9], over 300; in assay [11] it was over 300; in assay [12], 221.3. Besides, the Ratio in assay [4] is 16; in assay [5], 5; in assay [6], 13; in assay [10] it was 10; in [13], 18; in assay [16], 12. The IC50 in assay [7] was found to be 0.031 ug well-1; in [14], 0.036 ug well-1.

In the case of `COc1cc(NC(C)CCCN)c2ncccc2c1NC(C)CCCN` (stereo unspecified), the IC90 was 0.055 ug well-1 in [1] and 0.235 ug well-1 in assay [15]. Besides, the results for the Activity in [17], in [22] and in assay [9] were 185, 240 and 315, respectively. The IC50 in [7] is listed as 0.046 ug well-1; in assay [14], 0.026 ug well-1. Also, the Ratio in [18] was 0; in assay [19], 8; in assay [20], 0; in [21] it was 15; in assay [23], 0; in assay [24], 16. Further, the Ratio in assay [25] and in [26] was 0 throughout.

For the molecule `COc1c(O)c(NC(C)CCCN)c2ncccc2c1-c1c(OC)c(O)c(NC(C)CCCN)c2ncccc12` (stereo unspecified), the values for the IC90 in assay [1] and in assay [15] were over 150 ug well-1 and 1.75 ug well-1, respectively. The IC50 in assay [7] is recorded as 0.49 ug well-1; in [14], over 150 ug well-1.

Regarding `CC(CCCN)N(C(C)CCCN)C(C)CCCN` (stereo unspecified), the IC90 in assay [1] is on record as 0.38 ug well-1; in assay [15], 0.245 ug well-1. Moreover, the IC50 worked out at 0.155 ug well-1 in [7] and 0.115 ug well-1 in assay [14].

Turning to `CC(CCCN)Nc1c(O)c(O)c(NC(C)CCCN)c2ncccc12` (stereo unspecified), the IC90 in assay [1] is listed as over 150 ug well-1; in assay [15], over 50 ug well-1. The IC50 in assay [7] is over 50 ug well-1; in assay [14], over 150 ug well-1.

The molecule `CCN(CC)CCCC(C)Nc1ccnc2cc(Cl)ccc12` (stereo unspecified) [CHLOROQUINE] displayed an IC50 in assay [7] of 0.011 ug well-1. For the same molecule, in [15], the IC90 came to 0.015 ug well-1.

`COc1cc(NC(C)CCCN)c2ncccc2c1` (stereo unspecified) [PRIMAQUINE] returned an IC90 in assay [1] of 0.38 ug well-1. Besides, the Ratio in [20] stood at 0; in assay [27] it was 18; in assay [26] it was 0. The molecule further showed an Activity in assay [9] of 280.7. The molecule also yielded an IC50 in assay [14] of 0.115 ug well-1.
